Test systems include SK-MEL-5 melanoma; UACC-257 melanoma; KM20L2 colon; OVCAR-5 ovarian; NCI-H226 lung; DLD-1 colon; SNB-78 CNS.
Holding throughout (assay): NCI tumour cell line growth inhibition, 48 h

In PubChem BioAssay (NCI) one finds TGI and GI50 data, which are given here for 17 compounds.

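Protocol summary: plate cells (96-well), add compound at 5 concentrations, incubate 48 h, interpolate endpoints linearly. GI50: concentration for 50% inhibition of growth. TGI denotes the concentration required for complete inhibition of growth.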 Where only a bound is given, the exact number is not on record here.

As for `COC(=O)/C(=C\c1ccc(N(CCC#N)CCC#N)cc1)NC(=O)c1cc([N+](=O)[O-])ccc1Cl`, the TGI with SK-MEL-5 melanoma, in the assay with UACC-257 melanoma, with KM20L2 colon, in the assay on OVCAR-5 ovarian, in the assay on NCI-H226 lung and in the assay with DLD-1 colon was over 100 µM in each case. The compound further displayed a TGI in the assay with SNB-78 CNS of over 100 µM.
With `O=C(O)CN(c1ccccc1)S(=O)(=O)c1ccc([N+](=O)[O-])cc1`, the TGI in the assay with SK-MEL-5 melanoma, in the assay with UACC-257 melanoma, in the assay with KM20L2 colon, in the assay with OVCAR-5 ovarian, in the assay on NCI-H226 lung and in the assay with DLD-1 colon was over 100 µM in each case.
`CCOc1ccccc1NC(=O)C(=O)Cc1nc2ccccc2s1`: the TGI in the assay with SK-MEL-5 melanoma, in the assay on UACC-257 melanoma, with KM20L2 colon, in the assay with NCI-H226 lung, in the assay on DLD-1 colon and with SNB-78 CNS was over 100 µM in each case.
In the case of `CC(C(=O)n1c2ccccc2c2ccccc21)N(c1ccccc1)c1ccccc1` (configuration not stated), the TGI in the assay on SK-MEL-5 melanoma came to 35.1 µM; with UACC-257 melanoma, 32.3 µM; in the assay on KM20L2 colon, 33.1 µM; in the assay on OVCAR-5 ovarian, 33.6 µM; in the assay with NCI-H226 lung, 47.7 µM; in the assay with DLD-1 colon, 43 µM. In addition, in the assay on SNB-78 CNS, the TGI came out at 32 µM.
As to `CC(=O)OCCOCNC(=S)N/N=C/c1ccc(Br)s1`, the TGI in the assay with SK-MEL-5 melanoma, with UACC-257 melanoma, in the assay on KM20L2 colon, in the assay with OVCAR-5 ovarian, in the assay on NCI-H226 lung and in the assay on DLD-1 colon was over 100 µM throughout. Moreover, the TGI with SNB-78 CNS is over 100 µM.
Regarding `CC(=O)OC1C2CCC1C1C2C2(Cl)C(Cl)=C(Cl)C1(Cl)C2(Cl)Cl` (configuration not stated), the TGI in the assay on SK-MEL-5 melanoma was 26 µM; with UACC-257 melanoma it was 27.4 µM; in the assay on KM20L2 colon, 22.9 µM; with OVCAR-5 ovarian, 23.1 µM; in the assay on NCI-H226 lung, 26.7 µM; in the assay on DLD-1 colon it was 33.3 µM. Also, the TGI in the assay on SNB-78 CNS is 34.8 µM.
As for `COC(=O)c1cccc2cccc(C(=O)Nc3ccc(Cl)cc3)c12`, the TGI in the assay on SK-MEL-5 melanoma was over 100 µM; in the assay on UACC-257 melanoma it was over 100 µM; in the assay on KM20L2 colon it was over 100 µM; in the assay with OVCAR-5 ovarian, over 100 µM; with NCI-H226 lung, over 100 µM; in the assay with DLD-1 colon, over 62.5 µM. Also, the TGI in the assay on SNB-78 CNS was over 100 µM.
On to `OCC(O)CNc1ccnc2cc(Cl)ccc12` (configuration not stated), for which the TGI in the assay on SK-MEL-5 melanoma, with UACC-257 melanoma, with KM20L2 colon, in the assay with OVCAR-5 ovarian, in the assay with NCI-H226 lung and in the assay on DLD-1 colon was over 100 µM each time. In the assay with SNB-78 CNS, this compound returned a TGI of over 100 µM.
`N.N.NCCCCCCCCCN.O=C([O-])CC(=O)[O-].O=C([O-])CC(=O)[O-].[Pt+4].[Pt+4]`: the GI50 with SK-MEL-5 melanoma is 28.9 µM; in the assay with UACC-257 melanoma, over 100 µM; in the assay on KM20L2 colon, over 100 µM; in the assay on OVCAR-5 ovarian it was over 100 µM; in the assay on NCI-H226 lung, over 100 µM; in the assay on DLD-1 colon, over 100 µM. In addition, the GI50 in the assay on SNB-78 CNS is over 100 µM. For the same compound, the TGI in the assay on SK-MEL-5 melanoma was 81.7 µM; in the assay with UACC-257 melanoma it was over 100 µM; in the assay with KM20L2 colon it was over 100 µM; with OVCAR-5 ovarian it was over 100 µM; in the assay with NCI-H226 lung it was over 100 µM; in the assay on DLD-1 colon it was over 100 µM. The compound further displayed a TGI in the assay on SNB-78 CNS of over 100 µM.
`Cc1cccc(N=C2NC(=O)C(CC(=O)Nc3cccc(C)c3C)S2)c1` (configuration not stated): the TGI with SK-MEL-5 melanoma, with UACC-257 melanoma, in the assay on KM20L2 colon, in the assay on OVCAR-5 ovarian, with NCI-H226 lung and with DLD-1 colon was over 100 µM throughout. In the assay with SNB-78 CNS, this compound yielded a TGI of over 100 µM.
For `c1ccc(CSc2nc3ccccc3nc2-c2cccs2)cc1`, the TGI in the assay with SK-MEL-5 melanoma, in the assay with UACC-257 melanoma, in the assay with OVCAR-5 ovarian, with NCI-H226 lung, in the assay on DLD-1 colon and with SNB-78 CNS was over 100 µM each time.
For the compound `[F][Sn]([F])([c]1ccccc1)[c]1ccccc1`, the GI50 with SK-MEL-5 melanoma is 1.78 µM; in the assay on UACC-257 melanoma, 1.56 µM; with KM20L2 colon it was 1.87 µM; in the assay with OVCAR-5 ovarian, 1.51 µM; in the assay on NCI-H226 lung, 2.11 µM; in the assay with DLD-1 colon, 1.88 µM. Moreover, the GI50 in the assay with SNB-78 CNS was 3.18 µM. The TGI with SK-MEL-5 melanoma came out at 3.31 µM; in the assay with UACC-257 melanoma, 3.2 µM; with KM20L2 colon, 3.39 µM; in the assay with OVCAR-5 ovarian it was 3.69 µM; in the assay with NCI-H226 lung it was 4.26 µM; with DLD-1 colon, 3.47 µM. This compound also gave a TGI in the assay with SNB-78 CNS of 16 µM.
Consider `CCCCc1c2c(nc3c1CCC/C3=C\c1ccccc1)/C(=C/c1ccccc1)CCC2`, for which the TGI in the assay on SK-MEL-5 melanoma, in the assay with UACC-257 melanoma, with KM20L2 colon and with NCI-H226 lung was over 100 µM each time.
Consider `CN(C)CCSc1nccc(-c2cc3ccccc3s2)n1`, for which the TGI in the assay with SK-MEL-5 melanoma was 27.9 µM; in the assay on OVCAR-5 ovarian it was 82.4 µM; with NCI-H226 lung, 38 µM; in the assay with DLD-1 colon, over 100 µM; in the assay on SNB-78 CNS, 47.8 µM.
On to `CC1=C(c2cc(C(=O)Nc3ccc(Cl)cc3)nc(=S)[nH]2)Sc2ccccc2N1`, for which the TGI in the assay on SK-MEL-5 melanoma, in the assay on UACC-257 melanoma, in the assay on KM20L2 colon, in the assay on OVCAR-5 ovarian, in the assay on DLD-1 colon and in the assay with SNB-78 CNS was over 100 µM each time.
For the compound `CCOC(=O)/C(=C/c1cccc(C#N)c1)N(CC)CC`, the TGI in the assay on SK-MEL-5 melanoma, in the assay with UACC-257 melanoma, in the assay with OVCAR-5 ovarian, in the assay on NCI-H226 lung, in the assay with DLD-1 colon and in the assay with SNB-78 CNS was over 100 µM throughout.
With `O=c1nc(-c2ccccc2)cc(-c2ccccc2O)[nH]1`, the TGI with UACC-257 melanoma, in the assay with KM20L2 colon, in the assay with OVCAR-5 ovarian, in the assay on NCI-H226 lung, in the assay with DLD-1 colon and in the assay on SNB-78 CNS was over 100 µM each time.
